From PubChem BioAssay AID743136 (Broad Institute, 2013)
“And” between values parts separate entries of the source, which are not always exact repeats. Identical values can stand only once. The source made the active and inactive calls.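 Rule for the calls: active = valid fitted curve with falling viability signal and AC50 at most twice the top tested concentration; inconclusive = flat curve with 30 to 70% signal loss, or poor fit; inactive = the rest, including opposite-direction effects.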

Legend:
[1] = system: HepG2 viability, CellTiter-Glo ATP luminescence, 72 h; test: hepatoma cell viability reduction – ATP luminescence, dry powder, Set2, 50 µM top, cytotoxicity control, dose response (AID 743136)
[2] = as above; conditions: HepG2 viability, CellTiter-Glo ATP luminescence, 72 h

## Cc1c(C(=O)O)sc2nc(/C=C/c3cccc(OC(F)(F)F)c3)[nH]c(=O)c12
[1]
  AC50: > 100 µM (inactive)

## Cc1c(C(=O)O)sc2nc(/C=C/c3cccc(O)c3)[nH]c(=O)c12
[2]; at 46 µM (top of the series)
  activity change, negative = cytotoxicity: 1.28% (inactive)
[2]; at 50 µM (top of the series)
  activity change, negative = cytotoxicity: -10.4% (inactive) and -7.42% (inactive)

## Cc1c(C(=O)O)sc2nc(/C=C/c3cccc(C(F)(F)F)c3)[nH]c(=O)c12
[2]; at 50 µM (top of the series)
  activity change, negative = cytotoxicity: -10.9% (inactive)

## Cc1c(C(=O)O)sc2nc(/C=C/c3cccc(F)c3)[nH]c(=O)c12
[2]; at 50 µM (top of the series)
  activity change, negative = cytotoxicity: -10.3% (inactive)

## Cc1c(C(=O)O)sc2nc(/C=C/c3cccc(N)c3)[nH]c(=O)c12
[2]; at 50 µM (top of the series)
  activity change, negative = cytotoxicity: -6.41% (inactive)

## Cc1c(C(=O)O)sc2nc(CCc3cccc(O)c3)[nH]c(=O)c12
[2]; at 50 µM (top of the series)
  activity change, negative = cytotoxicity: -14.1% (inactive)

## Cc1c(C(=O)O)sc2nc(/C=C/c3ccc4[nH]ccc4c3)[nH]c(=O)c12
[2]; at 50 µM (top of the series)
  activity change, negative = cytotoxicity: 1.56% (inactive)

## Cc1c(C(=O)O)sc2nc(/C=C/c3cccc(N4CCNCC4)c3)[nH]c(=O)c12
[2]; at 50 µM (top of the series)
  activity change, negative = cytotoxicity: -21% (inactive)

## Cc1c(C(=O)O)sc2nc(/C=C/c3ccc4[nH]ccc4n3)[nH]c(=O)c12
[2]; at 12 µM (top of the series)
  activity change, negative = cytotoxicity: 2.05% (inactive)

## Cc1c(C(=O)O)sc2nc(/C=C/c3cc4ccccc4cn3)[nH]c(=O)c12
[2]; at 50 µM (top of the series)
  activity change, negative = cytotoxicity: -5.12% (inactive)

## Cc1c(C(=O)O)sc2nc(/C=C/c3cccc(C(=O)O)c3)[nH]c(=O)c12
[2]; at 50 µM (top of the series)
  activity change, negative = cytotoxicity: -5.9% (inactive)

## Cc1c(C(=O)O)sc2nc(/C=C/c3cccc([N+](=O)[O-])c3)[nH]c(=O)c12
[2]; at 50 µM (top of the series)
  activity change, negative = cytotoxicity: -30.8% (inactive)

## Cc1c(C(=O)O)sc2nc(/C=C/c3ccccc3O)[nH]c(=O)c12
[2]; at 50 µM (top of the series)
  activity change, negative = cytotoxicity: -7.61% (inactive)

## Cc1c(C(=O)O)sc2nc(/C=C/c3cccc(=O)[nH]3)[nH]c(=O)c12
[2]; at 50 µM (top of the series)
  activity change, negative = cytotoxicity: -1.32% (inactive)

## Cc1c(C(=O)O)sc2nc(/C=C/c3ccccn3)[nH]c(=O)c12
[2]; at 50 µM (top of the series)
  activity change, negative = cytotoxicity: -16.2% (inactive)

## Cc1c(C(=O)O)sc2nc(/C=C/c3ccnc4ccccc34)[nH]c(=O)c12
[2]; at 50 µM (top of the series)
  activity change, negative = cytotoxicity: -5.63% (inactive)

## Cc1c(C(=O)O)sc2nc(/C=C/c3cccnc3N)[nH]c(=O)c12
[1]
  AC50: > 24 µM (inactive)

## Cc1c(C(=O)O)sc2nc(/C=C/c3ccccc3)[nH]c(=O)c12
[2]; at 50 µM (top of the series)
  activity change, negative = cytotoxicity: -17.2% (inactive)

## Cc1c(C(=O)O)sc2nc(/C=C/c3ccc4cc[nH]c4c3)[nH]c(=O)c12
[2]; at 50 µM (top of the series)
  activity change, negative = cytotoxicity: -21% (inactive)

## Cc1c(C(=O)O)sc2nc(/C=C/c3cccnc3)[nH]c(=O)c12
[2]; at 50 µM (top of the series)
  activity change, negative = cytotoxicity: -15.4% (inactive)

## Cc1c(C(=O)O)sc2nc(/C=C/C=C/c3ccccc3)[nH]c(=O)c12
[2]; at 50 µM (top of the series)
  activity change, negative = cytotoxicity: 20.1% (inactive)

## Cc1c(C(=O)O)sc2nc(/C=C/c3ccncc3)[nH]c(=O)c12
[2]; at 50 µM (top of the series)
  activity change, negative = cytotoxicity: -2.2% (inactive)

## Cc1c(C(=O)O)sc2nc(/C=C/c3cccc(N4CCOCC4)n3)[nH]c(=O)c12
[2]; at 50 µM (top of the series)
  activity change, negative = cytotoxicity: -4.25% (inactive)

## Cc1c(C(=O)O)sc2nc(/C=C/C3CC3)[nH]c(=O)c12
[2]; at 50 µM (top of the series)
  activity change, negative = cytotoxicity: -1.5% (inactive)

## COc1cccc(/C=C/c2nc3sc(C(=O)O)c(C)c3c(=O)[nH]2)c1
[2]; at 50 µM (top of the series)
  activity change, negative = cytotoxicity: -15.1% (inactive)

## Cc1c(C(=O)O)sc2nc(/C=C/c3ccc(N)nc3)[nH]c(=O)c12
[2]; at 50 µM (top of the series)
  activity change, negative = cytotoxicity: -9.16% (inactive)

## Cc1c(C(=O)O)sc2nc(/C=C/c3ccc(O)cn3)[nH]c(=O)c12
[2]; at 1.2 µM (top of the series)
  activity change, negative = cytotoxicity: -0.612% (inactive)

## Cc1c(C(=O)O)sc2nc(/C=C/c3cnc4ccccc4c3)[nH]c(=O)c12
[2]; at 50 µM (top of the series)
  activity change, negative = cytotoxicity: -18.5% (inactive)

## Cc1c(C(=O)O)sc2nc(/C=C/c3ccc4ccccc4c3)[nH]c(=O)c12
[2]; at 50 µM (top of the series)
  activity change, negative = cytotoxicity: -8.19% (inactive)

## Cc1c(C(=O)O)sc2nc(/C=C/c3cccc(C(N)=O)c3)[nH]c(=O)c12
[2]; at 50 µM (top of the series)
  activity change, negative = cytotoxicity: -16.7% (inactive)
